# Test system: pFGFR4 in MDA-MB-453 cells
# Assay: FGFR4 signaling, pFGFR4 (MDA); Western blot (Method A), MSD (Method B), ELISA (Method C)
# Assay type: cell-based
# Conditions: Homo sapiens, MDA-MB-453, MDA-MB-453 cells; Method B (MSD) for signaling EC50 determination
# Procedure: The MDA-MB-453 protein concentrations were determined by a BCA Assay (Pierce, Rockford, Ill.). A sample of 50-100 μg of each lysate was separated by a 4-12% gradient (SDS-PAGE (Invitrogen)), transferred to a nitrocellulose membrane (Biorad, Hercules, Calif.), and probed with specific antibodies. Phospho-protein signals were quantitated using Odyssey Infrared Imaging (Li-Cor Biosciences).
# To assess phospho-FGFR signaling, the blots were probed with anti-Phospho-FGFR (Y653/Y654) and total anti-FGFR antibodies. The phospho-FGFR signal was normalized to total FGFR expression for each sample.
row,SMILES,EC50 [nM]
1,C=CC(=O)Nc1ccccc1Oc1ncc2c(n1)N(C)C(=O)N(c1c(Cl)c(OC)cc(OC)c1Cl)C2 [Compound I-65],101 to 500
2,C=CC(=O)Nc1ccccc1Nc1ncc2nc(-c3cc(OC)cc(OC)c3)c(=O)n(C)c2n1 [Compound I-128],> 1000
3,C=CC(=O)NC1CCCCC1Nc1ncc2c(n1)N(C1CCCNC1)C(=O)N(c1cc(OC)cc(OC)c1)C2 (racemic) [Compound I-46],> 1000

# Same assay, conditions: Homo sapiens; MDA-MB-453 cells; Method A (Western blot) for signaling EC50 determination
row,EC50 [nM],SMILES
1,< 100,C=CC(=O)Nc1ccc(Nc2ncc3c(n2)N(Cc2cccc(NC(=O)CC)c2)C(=O)N(c2c(Cl)c(OC)cc(OC)c2Cl)C3)cc1 [Compound I-233]

# Same assay, conditions: Homo sapiens; MDA-MB-453 cells; Method B (MSD) for signaling EC50 determination
row,EC50 [nM],SMILES
1,101 to 500,C=CC(=O)Nc1ccccc1Nc1ncc2c(n1)N(C)C(=O)N(c1cc(OC)cc(OC)c1)C2 [Compound I-5]
2,501 to 999,C=CC(=O)Nc1cc(C(=O)NC2CCN(C)CC2)ccc1Nc1ncc2c(n1)N(C)C(=O)N(c1cc(OC)cc(OC)c1)C2 [Compound I-151]
3,101 to 500,C=CC(=O)Nc1ccccc1Nc1ncc2cc(-c3cc(OC)cc(OC)c3)c(N)nc2n1 [Compound I-155]
4,< 100,C=CC(=O)Nc1cc(N2CCN(CCOC)CC2)ccc1Nc1ncc2c(n1)N(Cc1cccc(NC(=O)CC)c1)C(=O)N(c1cc(OC)cc(OC)c1)C2 [Compound I-9]
5,< 100,C=CC(=O)Nc1ccccc1Nc1ncc2c(n1)N(CC(F)F)C(=O)N(c1cc(OC)cc(OC)c1Cl)C2 [Compound I-104]
6,< 100,C=CC(=O)Nc1ccccc1Nc1ncc2c(n1)N(Cc1ccnc(N)c1)C(=O)N(c1c(Cl)c(OC)cc(OC)c1Cl)C2 [Compound I-135]
7,101 to 500,C=CC(=O)Nc1cc(OCCOC)ccc1Nc1ncc2c(n1)N(Cc1ccccc1)C(=O)N(c1cc(OC)cc(OC)c1)C2 [Compound I-14]
8,101 to 500,C=CC(=O)Nc1cc(C2CCN(CC)CC2)ccc1Nc1ncc2c(n1)N(C)C(=O)N(c1cc(OC)cc(OC)c1)C2 [Compound I-54]
9,< 100,C=CC(=O)N[C@H]1CCCC[C@H]1Nc1ncc2c(n1)N(Cc1cnn(C)c1)C(=O)N(c1c(Cl)c(OC)cc(OC)c1Cl)C2 [Compound I-148]
10,< 100,C=CC(=O)Nc1ccccc1Nc1ncc2c(n1)N(Cc1ccn(C)n1)C(=O)N(c1c(Cl)c(OC)cc(OC)c1Cl)C2 [Compound I-136]
11,101 to 500,C=CC(=O)NC1CCCCC1Nc1ncc2c(n1)NC(=O)N(c1c(Cl)c(OC)cc(OC)c1Cl)C2 (racemic) [Compound I-73]
12,< 100,C=CC(=O)Nc1cc(-c2cnn(C)c2)ccc1Nc1ncc2c(n1)N(C)C(=O)N(c1c(Cl)c(OC)cc(OC)c1Cl)C2 [Compound I-141]
13,> 1000,C=CC(=O)Nc1ccccc1Nc1ncc2c(n1)N(C)C(=O)N(C1CCCCC1)C2 [Compound I-52]
14,< 100,C=CC(=O)NCc1ccccc1Nc1ncc2c(n1)N(C)C(=O)N(c1c(Cl)c(OC)cc(OC)c1Cl)C2 [Compound I-181]
15,< 100,C=CCCN1C(=O)N(c2cc(OC)cc(OC)c2)Cc2cnc(Nc3ccccc3NC(=O)C=C)nc21 [Compound I-57]
16,101 to 500,C=CC(=O)Nc1ccccc1Nc1ncc2c(n1)N(CCC(O)CO)C(=O)N(c1cc(OC)cc(OC)c1)C2 (stereo not drawn) [Compound I-58]
17,101 to 500,C=CC(=O)NC1CCCCC1Nc1ncc2c(n1)N(C1CCC1)C(=O)N(c1c(Cl)c(OC)cc(OC)c1Cl)C2 (racemic) [Compound I-70]

# Same assay, conditions: MDA-MB-453 cells; Method B (MSD) for signaling EC50 determination
row,SMILES,EC50 [nM]
1,C=CC(=O)Nc1cc(C(F)(F)F)ccc1Nc1ncc2c(n1)N(Cc1ccccc1)C(=O)N(c1c(Cl)c(OC)cc(OC)c1Cl)C2 [Compound I-10],> 1000

# Test system: pFGFR4 in Huh7 cells
# Assay: FGFR4 signaling, pFGFR4 (Huh); MSD (Method B)
# Assay type: cell-based
# Conditions: Homo sapiens, Huh-7, read-out: Signaling EC50 (nM) pFGFR4 (Huh)
row,SMILES,EC50 [nM]
1,C=CC(=O)Nc1ccccc1Nc1ncc2c(n1)N(C1CCN(CC)CC1)C(=O)N(c1cc(OC)cc(OC)c1)C2 [Compound I-80],> 1000
2,C=CC(=O)NC1CCCCC1Nc1ncc2c(n1)N(C)C(=O)N(c1c(Cl)c(OC)cc(OC)c1Cl)C2 (racemic) [Compound I-19],101 to 500
3,C=CC(=O)Nc1cc(N2CCN(C(=O)CCCC(=O)NCCCOCCOCCOCCCNC(=O)CCCC[C@@H]3SC[C@@H]4NC(=O)N[C@@H]43)CC2)ccc1Nc1ncc2c(n1)N(C)C(=O)N(c1c(Cl)c(OC)cc(OC)c1Cl)C2 [Compound I-127],101 to 500
4,C=CC(=O)N[C@H]1CCCC[C@H]1Nc1ncc2c(n1)N(C)C(=O)N(c1c(Cl)c(OC)cc(OC)c1Cl)C2 [Compound I-95],101 to 500
5,C=CC(=O)N[C@H]1CCCC[C@H]1Nc1ncc2cc(-c3c(Cl)c(OC)cc(OC)c3Cl)c(=O)n(C)c2n1 [Compound I-223],< 100
6,C=CC(=O)N[C@H]1CCCC[C@H]1Nc1ncc2c(n1)N(Cc1cscn1)C(=O)N(c1c(Cl)c(OC)cc(OC)c1Cl)C2 [Compound I-114],101 to 500
7,C=CC(=O)Nc1ccccc1Nc1ncc2c(n1)N(C1CCNCC1)C(=O)N(c1cc(OC)cc(OC)c1)C2 [Compound I-81],> 1000

# Same assay, conditions: Homo sapiens, Huh-7; Huh7 cells; read-out: Signaling EC50 (nM) pFGFR4 (Huh)
row,EC50 [nM],SMILES
1,101 to 500,C=CC(=O)Nc1ccccc1Nc1ncc2c(n1)N(C)C(=O)N(c1cc(OC)cc(OC)c1)C2 [Compound I-5]
2,> 1000,C=CC(=O)NC1COCC1Nc1ncc2c(n1)N(C)C(=O)N(c1ccc(OC)cc1)C2 (stereo not drawn) [Compound I-209]
3,> 1000,C=CC(=O)Nc1cc(C(=O)NC2CCN(C)CC2)ccc1Nc1ncc2c(n1)N(C)C(=O)N(c1cc(OC)cc(OC)c1)C2 [Compound I-151]
4,> 1000,C=CC(=O)Nc1ccccc1Nc1ncc2cc(-c3cc(OC)cc(OC)c3)c(N)nc2n1 [Compound I-155]
5,101 to 500,C=CC(=O)Nc1cc(N2CCN(CCOC)CC2)ccc1Nc1ncc2c(n1)N(Cc1cccc(NC(=O)CC)c1)C(=O)N(c1cc(OC)cc(OC)c1)C2 [Compound I-9]
6,< 100,C=CC(=O)Nc1ccccc1Nc1ncc2c(n1)N(CC(F)F)C(=O)N(c1cc(OC)cc(OC)c1Cl)C2 [Compound I-104]
7,101 to 500,C=CC(=O)NC1CS(=O)(=O)CC1Nc1ncc2c(n1)N(C)C(=O)N(c1c(Cl)c(OC)cc(OC)c1Cl)C2 (stereo not drawn) [Compound I-200]
8,< 100,C=CC(=O)NC1COCC1Nc1ncc2c(n1)N(C)C(=O)N(c1c(F)c(OC)cc(OC)c1Cl)C2 (stereo not drawn) [Compound I-206]
9,501 to 999,C=CC(=O)N[C@H]1CCCC[C@H]1Nc1ncc2c(n1)N(C)C(=O)N(c1c(Cl)c(OCC)cc(OCC)c1Cl)C2 [Compound I-219]
10,< 100,C=CC(=O)NC1CN(c2ccn(C)n2)CC1Nc1ncc2c(n1)N(C)C(=O)N(c1c(Cl)c(OC)cc(OC)c1Cl)C2 (stereo not drawn) [Compound I-204]
11,< 100,C=CC(=O)NC1COCC1Nc1ncc2c(n1)N(Cc1cscn1)C(=O)N(c1c(Cl)c(OC)cc(OC)c1Cl)C2 (stereo not drawn) [Compound I-210]
12,< 100,C=CC(=O)NC1COCC1Nc1ncc2c(n1)N(C)C(=O)N(c1c(F)c(OC)cc(OC)c1F)C2 (stereo not drawn) [Compound I-198]
13,101 to 500,C=CC(=O)NC1COCC1Nc1ncc2c(n1)N(Cc1cc[nH]n1)C(=O)N(c1c(Cl)c(OC)cc(OC)c1Cl)C2 (stereo not drawn) [Compound I-216]
14,< 100,C=CC(=O)Nc1cc(OC)ccc1Nc1ncc2cc(-c3c(Cl)c(OC)cc(OC)c3Cl)c(=O)n(C)c2n1 [Compound I-242]
15,101 to 500,C=CC(=O)NC1COCC1Nc1ncc2c(n1)N(Cc1cn[nH]c1)C(=O)N(c1c(Cl)c(OC)cc(OC)c1Cl)C2 (stereo not drawn) [Compound I-214]
16,< 100,C=CC(=O)NC1COCC1Nc1ncc2c(n1)N(Cc1cnn(C)c1)C(=O)N(c1c(Cl)c(OC)cc(OC)c1Cl)C2 (stereo not drawn) [Compound I-213]
17,101 to 500,C=CC(=O)NC1CCCCC1Nc1ncc2c(n1)N(Cc1cccc(NC(=O)CC)c1)C(=O)N(c1c(Cl)c(OC)cc(OC)c1Cl)C2 (racemic) [Compound I-8]
18,< 100,C=CC(=O)NC1COCC1Nc1ncc2c(n1)N(CC1CC1)C(=O)N(c1c(Cl)c(OC)cc(OC)c1Cl)C2 (stereo not drawn) [Compound I-212]
19,101 to 500,C=CC(=O)NC1CN(c2ccncn2)CC1Nc1ncc2c(n1)N(C)C(=O)N(c1c(Cl)c(OC)cc(OC)c1Cl)C2 (stereo not drawn) [Compound I-201]
20,< 100,C=CC(=O)NC1COCC1Nc1ncc2c(n1)N(CC)C(=O)N(c1c(Cl)c(OC)cc(OC)c1Cl)C2 (stereo not drawn) [Compound I-217]
21,< 100,C=CC(=O)Nc1ccccc1Nc1ncc2cc(-c3c(Cl)c(OC)cc(OC)c3Cl)c(=O)n(C)c2n1 [Compound I-244]
22,> 1000,C=CC(=O)N[C@H]1CCCC[C@H]1Nc1ncc2c(n1)N(C)C(=O)N(c1cc(OC)c(OC)c(OC)c1)C2 [Compound I-220]
23,< 100,C=CC(=O)Nc1cc(C)ccc1Nc1ncc2cc(-c3c(Cl)c(OC)cc(OC)c3Cl)c(=O)n(C)c2n1 [Compound I-243]
24,< 100,C=CC(=O)NC1COCC1Nc1ncc2c(n1)N(Cc1ccn(C)n1)C(=O)N(c1c(Cl)c(OC)cc(OC)c1Cl)C2 (stereo not drawn) [Compound I-215]
25,< 100,C=CC(=O)Nc1cc(F)ccc1Nc1ncc2cc(-c3c(Cl)c(OC)cc(OC)c3Cl)c(=O)n(C)c2n1 [Compound I-245]

row,SMILES,EC50 [nM]
1,C=CC(=O)NC1COCC1Nc1ncc2c(n1)N(C)C(=O)N(c1cc(C(=O)Nc3cccc(C(C)(C)C#N)c3)ccc1Cl)C2 (stereo not drawn) [Compound I-246],101 to 500
2,C=CC(=O)NC1COCC1Nc1ncc2c(n1)N(C)C(=O)N(c1c(Cl)c(OCC)cc(OCC)c1Cl)C2 (stereo not drawn) [Compound I-205],101 to 500
3,C=CC(=O)Nc1cc(C(F)(F)F)ccc1Nc1ncc2c(n1)N(Cc1ccccc1)C(=O)N(c1c(Cl)c(OC)cc(OC)c1Cl)C2 [Compound I-6],101 to 500
4,C=CC(=O)N[C@H]1CCCC[C@H]1Nc1ncc2c(n1)N(C)C(=O)N(c1c(F)c(OC)cc(OC)c1Br)C2 [Compound I-228],101 to 500
5,C=CC(=O)NC1COCC1Nc1ncc2c(n1)N(C)C(=O)N(c1cc(OC)c(OC)c(OC)c1)C2 (stereo not drawn) [Compound I-207],> 1000
6,C=CC(=O)NC1COCC1Nc1ncc2c(n1)N(C)C(=O)N(c1cc(C(=O)Nc3cccc(C(C)(C)C)c3)ccc1Cl)C2 (stereo not drawn) [Compound I-247],< 100
7,C=CC(=O)N(C)C1COCC1Nc1ncc2c(n1)N(C)C(=O)N(c1c(Cl)c(OC)cc(OC)c1Cl)C2 (stereo not drawn) [Compound I-218],> 1000
8,C=CC(=O)NC1COCC1Nc1ncc2c(n1)N(C)C(=O)N(c1c(Cl)c(OC)c(OC)c(OC)c1Cl)C2 (stereo not drawn) [Compound I-208],> 1000
9,C=CC(=O)N[C@H]1CCCC[C@H]1Nc1ncc2c(n1)N(C)C(=O)N(c1c(Cl)c(OC)c(OC)c(OC)c1Cl)C2 [Compound I-221],> 1000

# Source: patent US10774052B2, “Heteroaryl compounds and uses thereof” (Celgene CAR LLC, priority 2013, dated 2020)
